# Experimental data: patent US20220289685A1, “ANTIMALARIAL HEXAHYDROPYRIMIDINE ANALOGUES” (UCB BIOPHARMA SRL, priority 2019, published 2022)
# Where a name gives a salt, the structure may show the parent alone.
# Tested on: Plasmodium falciparum 3D7 strain
# Test: P. falciparum 3D7 asexual blood stage assay (SYBR green readout)
# Type: cell-based
# Conditions: P. falciparum 3D7 in human erythrocytes, 72 h incubation, SYBR green fluorescence; read-out: IC50
# Summary of the method: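 P. falciparum 3D7 in A+ erythrocytes (5% haematocrit, 0.5% parasitaemia) exposed 72 h at 37 °C under 1% O2/3% CO2 to 20-point 1.5-fold titrations, 50,000–15 nM in 0.5% DMSO. SYBR green lysis overnight, fluorescence 485/528 nm; normalized to mefloquine and DMSO, EC50 from biphasic two-site fit.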
row,SMILES,IC50 [nM]
1,"COc1ncccc1C(=O)Nc1cccc([C@]2(C)CC(=O)N([C@@H]3CCO[C@H](C)C3)C(=N)N2)c1Cl (relative stereo) [Example 30, N-(2-Chloro-3-{(4S)-2-imino-4-methyl-1-[(2R*,4R*)-2-methyl-etrahydropyran-4-yl]-6-oxo-hexahydropyrimidin-4-yl]phenyl)-2-methoxypyridine-3-carboxamide trifluoroacetic acid salt]",15

# Same assay, conditions: Plasmodium falciparum, 3D7, Erythrocyte, 72 h
row,SMILES,IC50 [nM]
1,"C[C@@H]1C[C@H](N2C(=N)N[C@](C)(c3cccc(NC(=O)c4cc(C#N)cc(C(F)(F)F)c4)c3Cl)CC2=O)CCO1 (relative stereo) [Example 95, N-(2-Chloro-3-{(4S)-2-imino-4-methyl-1-[(2R*,4R*)-2-methyl-tetrahydropyran-4-yl]-6-oxo-hexahydropyrimidin-4-yl}phenyl)-3-cyano-5-(trifluoromethyl)-benzamide hydrochloride]",34
2,"COc1ccncc1C(=O)Nc1cccc([C@]2(C)CC(=O)N([C@@H]3CCO[C@H](C)C3)C(=N)N2)c1Cl (relative stereo) [Example 45, N-(2-Chloro-3-{(4S)-2-imino-4-methyl-1-[(2R*,4R*)-2-methyl-tetrahydropyran-4-yl]-6-oxo-hexahydropyrimidin-4-yl]phenyl)-4-methoxypyridine-3-carboxamide trifluoroacetic acid salt]",156
3,"C[C@@H]1C[C@H](N2C(=N)N[C@](C)(c3cccc(NC(=O)c4cc5cccc(F)c5o4)c3Cl)CC2=O)CCO1 (relative stereo) [Example 44, N-(2-Chloro-3-{(4S)-2-imino-4-methyl-1-[(2R*,4R*)-2-methyl-tetrahydropyran-4-yl]-6-oxo-hexahydropyrimidin-4-yl]phenyl)-7-fluorobenzofuran-2-carboxamide trifluoroacetic acid salt]",20
4,"COc1ccc2ccccc2c1C(=O)Nc1cccc([C@]2(C)CC(=O)N([C@@H]3CCO[C@H](C)C3)C(=N)N2)c1Cl (relative stereo) [Example 79, N-(2-Chloro-3-{(4S)-2-imino-4-methyl-1-[(2R*,4R*)-2-methyl-tetrahydropyran-4-yl]-6-oxo-hexahydropyrimidin-4-yl]phenyl)-2-methoxynaphthalene-1-carboxamide trifluoroacetic acid salt]",61
5,"Cc1nonc1C(=O)Nc1cccc([C@]2(C)CC(=O)N([C@@H]3CCO[C@H](C)C3)C(=N)N2)c1Cl (relative stereo) [Example 17, N-(2-Chloro-3-{(4S)-2-imino-4-methyl-1-[(2R*,4R*)-2-methyl-tetrahydropyran-4-yl]-6-oxo-hexahydropyrimidin-4-yl}phenyl)-4-methyl-1,2,5-oxadiazole-3-carboxamide hydrochloride]",12
6,"COc1cncc(C(=O)Nc2cccc([C@]3(C)CC(=O)N([C@@H]4CCO[C@H](C)C4)C(=N)N3)c2Cl)n1 (relative stereo) [Example 68, N-(2-Chloro-3-{(4S)-2-imino-4-methyl-1-[(2R*,4R*)-2-methyl-tetrahydropyran-4-yl]-6-oxo-hexahydropyrimidin-4-yl}phenyl)-6-methoxypyrazine-2-carboxamide hydrochloride]",11
7,"Cc1cc(Cl)cc(C(=O)Nc2cccc([C@]3(C)CC(=O)N([C@@H]4CCO[C@H](C)C4)C(=N)N3)c2Cl)c1 (relative stereo) [Example 22, 3-Chloro-N-(2-chloro-3-{(4S)-2-imino-4-methyl-1-[(2R*,4R*)-2-methyltetrahydropyran-4-yl]-6-oxo-hexahydropyrimidin-4-yl}phenyl)-5-methylbenzamide hydrochloride]",9
8,"C[C@@H]1C[C@H](N2C(=N)N[C@](C)(c3cccc(NC(=O)c4ccc(C#N)cc4)c3Cl)CC2=O)CCO1 (relative stereo) [Example 10, N-(2-Chloro-3-{(4S)-2-imino-4-methyl-1-[(2R*,4R*)-2-methyl-tetrahydropyran-4-yl]-6-oxo-hexahydropyrimidin-4-yl]phenyl)-4-cyanobenzamide hydrochloride]",290
